These results are taken from patent US20250074890A1, “CYANOPYRIDINE AND CYANOPYRIMIDINE BCL6 DEGRADERS” (DANA-FARBER CANCER INSTITUTE, INC., priority 2021, published 2025).

Usually DC50 stands for the midpoint of the concentration-degradation curve.

In the experiment the target is T1, BCL6 (Homo sapiens, UniProt P41182).
T1 construct: Endogenous BCL6 was tagged with the 11-amino acid SmBiT through CRISPR/Cas9 gene editing; endogenous in cells; host or cells: Su-DHL-4 (CRISPR/Cas9 knock-in, single cell clone)
Description: HiBiT cellular degradation assay in Su-DHL-4 cells. The settings on record: concentration to reach 50% degradation of endogenous SmBiT-tagged BCL6, 24 hours of compound treatment. The class given is cell-based. The procedure: DC50 (concentration to reach 50% degradation) values were determined from a cellular degradation assay (HiBiT, Promega™) in Su-DHL-4 cells (Table 1). Endogenous BCL6 was tagged with the 11-amino acid SmBiT through CRISPR/Cas9 gene editing and single cell clone selection. After 24 hours of compound treatment, cells were lysed and incubated with LgBiT protein to reconstitute intact nanoluciferase. Substrate was then added and relative luciferase units were measured. Degradation levels for each treatment were taken as a percentage compared to the control, 100% DMSO (Prism).
A general note: HiBiT is a short tag that completes a luciferase, so light tracks the accessible tagged protein.

In turn, `CNC(=O)COc1cc2cc(Nc3nc(N4C[C@@H](N)C(F)(F)[C@@H](C)C4)c(C#N)cc3Cl)ccc2n(C)c1=O` [Compound 44, 2-((6-((6-((3R,5S)-3-amino-4,4-difluoro-5-methylpiperidin-1-yl)-3-chloro-5-cyanopyridin-2-yl)amino)-1-methyl-2-oxo-1,2-dihydroquinolin-3-yl)oxy)-N-methylacetamide] displayed a DC50 of 70 nM.

As for `CNC(=O)COc1cc2cc(Nc3nc(N4C[C@@H](C)[C@@H](F)[C@@H](C)C4)c(C#N)cc3Cl)ccc2n(C)c1=O` [Compound 45, 2-((6-((3-Chloro-5-cyano-6-((3R,4S,5S)-4-fluoro-3,5-dimethylpiperidin-1-yl)pyridin-2-yl)amino)-1-methyl-2-oxo-1,2-dihydroquinolin-3-yl)oxy)-N-methylacetamide], the DC50 turned out to be 3 nM.

Regarding `CNC(=O)COc1cc2cc(Nc3nc(N4C[C@@H](C)[C@@H](O)[C@@H](C)C4)c(C#N)cc3Cl)ccc2n(C)c1=O` [Compound 46, 2-((6-((3-Chloro-5-cyano-6-((3R,4s,5S)-4-hydroxy-3,5-dimethylpiperidin-1-yl)pyridin-2-yl)amino)-1-methyl-2-oxo-1,2-dihydroquinolin-3-yl)oxy)-N-methylacetamide], it took 6 nM to reach half-maximal degradation (DC50). Compared with the last molecule, the DC50 is about 2-fold higher.

Turning to `CNC(=O)COc1cc2cc(Nc3nc(N4C[C@@H](C)[C@H](O)[C@@H](C)C4)c(C#N)cc3Cl)ccc2n(C)c1=O` [Compound 47, 2-((6-((3-Chloro-5-cyano-6-((3R,4r,5S)-4-hydroxy-3,5-dimethylpiperidin-1-yl)pyridin-2-yl)amino)-1-methyl-2-oxo-1,2-dihydroquinolin-3-yl)oxy)-N-methylacetamide], half-maximal degradation (DC50) was put at 11 nM.

For the molecule `C[C@@H]1CN(c2nc(Nc3ccc4c(c3)n(CCC(C)(C)O)c(=O)n4C)c(Cl)cc2C#N)C[C@H](N)C1(F)F` [Compound 48, 2-((3S,5R)-3-Amino-4,4-difluoro-5-methylpiperidin-1-yl)-5-chloro-6-((3-(3-hydroxy-3-methylbutyl)-1-methyl-2-oxo-2,3-dihydro-1H-benzo[d]imidazol-5-yl)amino)nicotinonitrile], the DC50 was determined as 31 nM.

The molecule `C[C@@H]1CN(c2nc(Nc3ccc4c(c3)n(CCC(C)(C)O)c(=O)n4C)c(Cl)cc2C#N)C[C@H](O)[C@@H]1F` [Compound 50, 5-chloro-2-((3S,4R,5R)-4-fluoro-3-hydroxy-5-methylpiperidin-1-yl)-6-((3-(3-hydroxy-3-methylbutyl)-1-methyl-2-oxo-2,3-dihydro-1H-benzo[d]imidazol-5-yl)amino)nicotinonitrile] displayed a DC50 of 28 nM.

`C[C@H]1CN(c2nc(Nc3ccc4c(c3)n(CCC(C)(C)O)c(=O)n4C)c(Cl)cc2C#N)C[C@@H](O)[C@H]1F` [Compound 51, 5-chloro-2-((3R,4S,5S)-4-fluoro-3-hydroxy-5-methylpiperidin-1-yl)-6-((3-(3-hydroxy-3-methylbutyl)-1-methyl-2-oxo-2,3-dihydro-1H-benzo[d]imidazol-5-yl)amino)nicotinonitrile] registered a 50% degradation concentration (DC50) of over 400 nM.

Consider `C[C@@H]1CN(c2nc(Nc3ccc4c(c3)n(CCC(C)(C)O)c(=O)n4C)c(F)cc2C#N)C[C@H](O)[C@@H]1F` [Compound 52, 5-Fluoro-2-((3S,4R,5R)-4-fluoro-3-hydroxy-5-methylpiperidin-1-yl)-6-((3-(3-hydroxy-3-methylbutyl)-1-methyl-2-oxo-2,3-dihydro-1H-benzo[d]imidazol-5-yl)amino)nicotinonitrile], for which half-maximal degradation (DC50) was put at 17 nM.

With `C[C@H]1CN(c2nc(Nc3ccc4c(c3)n(CCC(C)(C)O)c(=O)n4C)c(F)cc2C#N)C[C@@H](O)[C@H]1F` [Compound 53, 5-Fluoro-2-((3R,4S,5S)-4-fluoro-3-hydroxy-5-methylpiperidin-1-yl)-6-((3-(3-hydroxy-3-methylbutyl)-1-methyl-2-oxo-2,3-dihydro-1H-benzo[d]imidazol-5-yl)amino)nicotinonitrile], the DC50 was over 400 nM.

`C[C@H](O)CCn1c(=O)n(C)c2ccc(Nc3nc(N4C[C@@H](C)[C@@H](F)[C@@H](C)C4)c(C#N)cc3F)cc21` [Compound 54, 5-Fluoro-2-((3S,4R,5R)-4-fluoro-3,5-dimethylpiperidin-1-yl)-6-((3-((S)-3-hydroxybutyl)-1-methyl-2-oxo-2,3-dihydro-1H-benzo[d]imidazol-5-yl)amino)nicotinonitrile] had a half-maximal degradation concentration (DC50) of 38 nM.

Take `C[C@@H]1CN(c2nc(Nc3ccc4c(c3)n(CC[C@@H](C)O)c(=O)n4C)c(F)cc2C#N)C[C@H](C)[C@@H]1F` [Compound 55, 5-Fluoro-2-((3S,4S,5R)-4-fluoro-3,5-dimethylpiperidin-1-yl)-6-((3-((R)-3-hydroxybutyl)-1-methyl-2-oxo-2,3-dihydro-1H-benzo[d]imidazol-5-yl)amino)nicotinonitrile]: the DC50 stood at 33 nM.

Molecule `CC(O)CCn1c(=O)n(C)c2ccc(Nc3nc(N4C[C@@H](CCO)[C@H](F)[C@@H](C)C4)c(C#N)cc3F)cc21` (stereo partly drawn) [Compound 56, 5-fluoro-2-[(3R,4R,5S)-4-fluoro-3-(2-hydroxyethyl)-5-methyl-1-piperidyl]-6-[[3-(3-hydroxybutyl)-1-methyl-2-oxo-benzimidazol-5-yl]amino]pyridine-3-carbonitrile] had a DC50 of over 400 nM.

For `CC(O)CCn1c(=O)n(C)c2ccc(Nc3nc(N4C[C@H](CCO)[C@@H](F)[C@H](C)C4)c(C#N)cc3F)cc21` (stereo partly drawn) [Compound 57, 5-fluoro-2-[(3S,4S,5R)-4-fluoro-3-(2-hydroxyethyl)-5-methyl-1-piperidyl]-6-[[3-(3-hydroxybutyl)-1-methyl-2-oxo-benzimidazol-5-yl]amino]pyridine-3-carbonitrile], the DC50 was over 400 nM.

`CNC(=O)COc1cc2cc(Nc3nc(N4C[C@@H](C)C(F)(F)[C@@H](C)C4)c(C#N)cc3Cl)ccc2nc1OCC1COC1` [Compound 58, 2-((6-((3-chloro-5-cyano-6-((3R,5S)-4,4-difluoro-3,5-dimethylpiperidin-1-yl)pyridin-2-yl)amino)-2-(oxetan-3-ylmethoxy)quinolin-3-yl)oxy)-N-methylacetamide] displayed a DC50 of over 400 nM.

In turn, `C[C@@H]1CN(c2nc(Nc3ccc4c(c3)n(CCC3(O)CC3)c(=O)n4C)c(Cl)cc2C#N)C[C@H](N)C1(F)F` [Compound 59, 2-((3S,5R)-3-Amino-4,4-difluoro-5-methylpiperidin-1-yl)-5-chloro-6-((3-(2-(1-hydroxycyclopropyl)ethyl)-1-methyl-2-oxo-2,3-dihydro-1H-benzo[d]imidazol-5-yl)amino)nicotinonitrile] showed a DC50 of 48 nM. This lies in the double-digit nanomolar range.

In the case of `C[C@H]1CN(c2nc(Nc3ccc4c(c3)n(C[C@@H]3COC(=O)N3)c(=O)n4C)c(F)cc2C#N)C[C@@H](N)C1(F)F` [Compound 60, 2-[(3R,5S)-3-Amino-4,4-difluoro-5-methyl-1-piperidyl]-5-fluoro-6-[[1-methyl-2-oxo-3-[[(R)-2-oxooxazolidin-4-yl]methyl]benzimidazol-5-yl]amino]pyridine-3-carbonitrile], the DC50 is over 400 nM.

`C[C@H]1CN(c2nc(Nc3ccc4c(c3)n(C[C@H]3COC(=O)N3)c(=O)n4C)c(F)cc2C#N)C[C@@H](N)C1(F)F` [Compound 61, 2-((3R,5S)-3-amino-4,4-difluoro-5-methylpiperidin-1-yl)-5-fluoro-6-((1-methyl-2-oxo-3-(((S)-2-oxooxazolidin-4-yl)methyl)-2,3-dihydro-1H-benzo[d]imidazol-5-yl)amino)nicotinonitrile]: the DC50 is over 400 nM.

For `CNC(=O)COc1cc2cc(Nc3nc(N4C[C@@H](CCO)C(F)(F)[C@@H](C)C4)c(C#N)cc3Cl)ccc2n(C)c1=O` [Compound 62, 2-((6-((3-chloro-5-cyano-6-((3R,5S)-4,4-difluoro-3-(2-hydroxyethyl)-5-methylpiperidin-1-yl)pyridin-2-yl)amino)-1-methyl-2-oxo-1,2-dihydroquinolin-3-yl)oxy)-N-methylacetamide], half-maximal degradation (DC50) was put at 8 nM. This lies in the single-digit nanomolar range.

`CNC(=O)COc1cc2cc(Nc3nc(N4C[C@H](CCO)C(F)(F)[C@H](C)C4)c(C#N)cc3Cl)ccc2n(C)c1=O` [Compound 63, 2-((6-((3-chloro-5-cyano-6-((3S,5R)-4,4-difluoro-3-(2-hydroxyethyl)-5-methylpiperidin-1-yl)pyridin-2-yl)amino)-1-methyl-2-oxo-1,2-dihydroquinolin-3-yl)oxy)-N-methylacetamide] registered a DC50 of 39 nM. Against the preceding molecule, the DC50 is about 4.9-fold higher.

For the molecule `CNC(=O)COc1cc2cc(Nc3nc(N4C[C@@H](C)[C@H](F)[C@@H](C)C4)c(C#N)cc3Cl)ccc2n(C)c1=O` [Compound 64, 2-((6-((3-chloro-5-cyano-6-((3R,4r,5S)-4-fluoro-3,5-dimethylpiperidin-1-yl)pyridin-2-yl)amino)-1-methyl-2-oxo-1,2-dihydroquinolin-3-yl)oxy)-N-methylacetamide], the DC50 amounted to 7 nM.

`CNC(=O)COc1cc2cc(Nc3nc(N4C[C@@H](C)C(F)(F)[C@@H](C)C4)c(C#N)cc3Cl)ccc2n(CC2CNC2)c1=O` [Compound 65, 2-((1-(Azetidin-3-ylmethyl)-6-((3-chloro-5-cyano-6-((3R,5S)-4,4-difluoro-3,5-dimethylpiperidin-1-yl)pyridin-2-yl)amino)-2-oxo-1,2-dihydroquinolin-3-yl)oxy)-N-methylacetamide] registered a DC50 of 56 nM.

In the case of `CNC(=O)COc1cc2cc(Nc3nc(N4C[C@@H](C)[C@@H](F)[C@@H](C)C4)c(C#N)cc3Cl)ccc2n(CCN)c1=O` [Compound 66, 2-((1-(2-Aminoethyl)-6-((3-chloro-5-cyano-6-((3S,4S,5R)-4-fluoro-3,5-dimethylpiperidin-1-yl)pyridin-2-yl)amino)-2-oxo-1,2-dihydroquinolin-3-yl)oxy)-N-methylacetamide], the DC50 is 6 nM.
